Where “and” joins values, the source holds several entries; their conditions need not be identical. Equal entries are not always repeated. Where two headings read alike, the source gives them in different places.
Experiments:
BCG pTIC6-fbpA = assay type: cell-based, Mycobacterium bovis BCG
M. tuberculosis H37Rv = test: Mycobacterial time kill experiments (total viable counts); assay type: cell-based, Mycobacterium tuberculosis; conditions: 96 μM
M. bovis BCG = assay type: cell-based, Mycobacterium bovis BCG
BCG = assay type: cell-based, Mycobacterium bovis BCG; conditions: 0.5 × MIC
[1] = Mouse PK, multiple oral dosing of single compounds; assay type: in vivo, KM mice; conditions: for AUC(0-inf) / Cmax / Tmax / half-life: po
Excerpt: Methods for combined single dosing (BGAz001–005) and dosing of single compounds multiple times (BGAz004 and BGAz005) are described in detail in the Supporting Information (PK Data).
Report on PK results of BGAz-004 by multiple oral dosing
7 Materials and instrument combined dosing
An MS2 Turnover type oscillator was purchased from IKA Work’s Guangzhou (China), and a 5415R ChromatographicanalyseswereconductedusinganAgilent1290InfinityIIhighperformanceliquidchromatography andAgilentTechnologies6470TripleQuadLC/MS.Propranolol(≥90%inpurity,internalstandard,IS)waspurchased fromtheSigmaChemicalCo.(China).Formicacid(HPLCgrade)andmethanol(HPLCgrade)werepurchasedfrom DIKMACo.(China).Allchemicalsandsolventswereanalyticalgrade.WaterwaspurifiedusingaMillipore(AK,USA) laboratoryultra-purewatersystem(0.2μmfilter).
KMmice,weighing25–35g(BeijingVitalRiverLaboratoryAnimalTechnologyCo.,Ltd.,China)wereutilisedforthe studies.The protocols were approved by the Animal Care and Use Committee, GIBH. Animals were maintained on standard animal chow and waterad libitum, in a climate-controlled room (23±1 °C 30–70% relative humidity, a minimumof tenexchangesof roomairperhouranda12hlight/darkcycle)foroneweekpriortoexperiments.
9 Pharmacokinetic studies
Compound BGAz-004 were dissolved in the solution containing DMSO (2%), ethanol (4%), Cremophor EL (4%) and ddH2O (90%).The mice were given solution with 30 mg/kg bygastric gavagefor 3 days.Whole blood samples (100μL)wereobtainedfromtheorbitalvenousplexusatthefollowingtimepointsafterthethirddaydosing:5,15,30 min and 1, 3, 5, 8, 24 hour. Whole blood samples were collected in heparinised tubes. The plasma fraction was immediately separated by centrifugation. The mice were humanely euthanasia by carbon dioxide 24 hours after […]
10 Plasma sample analysis
10.1 Standard curve sample preparation
ThecompoundsweredissolvedinDMSO(2mg/mL)anddilutedwithtoseriesconcentration(methanol:H 2O,1:1,10 μL) and blank plasma (50 μL) were added to 1.5 mL tubes and vortexed for 3 min, then acetonitrile-containing internalstandard(150μL)wasaddedandvortexedforafurther5min,andsubsequentlyspuninacentrifugeat13000 […]
10.2 Plasma and preparation
Plasmasampleswerepreparedusingaproteinprecipitationmethod.Solution(10μL,methanolH 2O,1:1)andplasma samples(50μL)wereaddedto1.5mLtubesandvortexfor3min,thenacetonitrile-containinginternalstandard(150 μL)wasaddedandvortexfor5min,andsubsequentlyspuninacentrifugeat13000× gfor40minat4°C.
Aftercentrifugation,supernatant(100μL)wastransferto96wellplatesandanalysedbyLC-MS/MSusinganAgilent 1290InfinityIIHPLCandanAgilentTechnologies6470TripleQuadLC/MS.
Report on PK results of BGAz-005 by multiple oral dosing
13 Materials and instrument combined dosing […]
fromtheSigmaChemicalCo.(China).Formicacid(HPLCgrade)andmethanol(HPLCgrade)werepurchased from […]
15 Pharmacokinetic studies
Compound BGAz-005 were dissolved in the solution containing DMSO (2%), ethanol (4%), Cremophor EL (4%) […]
16 Plasma sample analysis
16.1 Standard curve sample preparation
16.2 Plasma and preparation

BCG pVV16-mmpL3 = assay type: cell-based, Mycobacterium bovis BCG
[2] = multiple PO 30 mg/kg, times 4, mean of animals

SMILES: Brc1cc(Br)cc(C2CC(CN3CCCC3)N2Cc2ccccc2Br)c1 (stereo not shown) [BGAz-004]
- BCG pTIC6-fbpA MIC (BCG pTIC6-fbpA): 20 µM
- reduction of total viable count (M. tuberculosis H37Rv; after 6 days of exposure): 0.79 ± 2.20 log10 CFU mL^–1
- reduction of total viable count (M. tuberculosis H37Rv; after 14 days' exposure): 1.90 ± 1.28 log10 CFU mL^–1
- log2FoldChange, gene BCG_0001 (M. bovis BCG): -0.1191
- log2FoldChange, gene BCG_0002 (M. bovis BCG): -0.5569
- log2FoldChange, gene BCG_0003 (M. bovis BCG): -0.5971
- log2FoldChange, gene BCG_0004 (M. bovis BCG): -0.2384
- log2FoldChange, gene BCG_0005 (M. bovis BCG): 0.5266
- TMM and TDM in cell envelope lipids (BCG): significant reduction
- AUC(0-inf) ([1]; KM, mouse, plasma, 30 mg/kg, multiple PO 30 mg/kg, times 4, mean of animals, read-out: AUC(0-∞)): 5420 ng·h/mL
- Cmax ([1]; KM, mouse, plasma, 30 mg/kg, multiple PO 30 mg/kg, times 4, mean of animals, read-out: Cmax): 364 ng/mL
- Tmax ([1]; KM, mouse, plasma, 30 mg/kg, multiple PO 30 mg/kg, times 4, mean of animals, read-out: Tmax): 1 h
- half-life ([1]; KM, mouse, plasma, 30 mg/kg, multiple PO 30 mg/kg, times 4, mean of animals, read-out: t1/2z (converted)): 8.07 h
- AUC(0-inf) ([1]; KM, mouse, plasma, 30 mg/kg, multiple PO, times 4, 30 mg/kg, summary table, read-out: AUC(0-∞)): 5420 ng·h/mL
- Cmax ([1]; KM, mouse, plasma, 30 mg/kg, multiple PO, times 4, 30 mg/kg, summary table, read-out: Cmax): 364 ng/mL
- half-life ([1]; KM, mouse, plasma, 30 mg/kg, multiple PO, times 4, 30 mg/kg, summary table, read-out: T1/2 (converted)): 8.07 h
- Tmax ([1]; KM, mouse, plasma, 30 mg/kg, multiple PO, times 4, 30 mg/kg, summary table, read-out: Tmax): 1 h
- AUC(0-inf) ([1]; KM, mouse, plasma, 30 mg/kg, multiple daily dosing 4 × 30 mg/kg PO, read-out: AUC0-inf): 5420 ng·h/mL
- Cmax ([1]; KM, mouse, plasma, 30 mg/kg, multiple daily dosing 4 × 30 mg/kg PO, read-out: Cmax (Mouse, P.O.)): 363 ng/mL
- half-life ([1]; KM, mouse, plasma, 30 mg/kg, multiple daily dosing 4 × 30 mg/kg PO, read-out: T1/2 (Mouse, P.O.) (converted)): 8.1 h
- Tmax ([1]; KM, mouse, plasma, 30 mg/kg, multiple daily dosing 4 × 30 mg/kg PO, read-out: Tmax (Mouse, P.O.)): 1 h
- concentration at 0.083 h ([1]; KM, mouse, plasma, multiple PO 30 mg/kg, times 4, 0.083 h): 214 nM and 115 ng/mL
- concentration at 0.25 h ([1]; KM, mouse, plasma, multiple PO 30 mg/kg, times 4, 0.25 h): 361 nM and 195 ng/mL
- concentration at 0.5 h ([1]; KM, mouse, plasma, multiple PO 30 mg/kg, times 4, 0.5 h): 590 nM and 319 ng/mL
- concentration at 1 h ([1]; KM, mouse, plasma, multiple PO 30 mg/kg, times 4, 1 h): 674 nM and 364 ng/mL
- concentration at 3 h ([1]; KM, mouse, plasma, multiple PO 30 mg/kg, times 4, 3 h): 594 nM and 321 ng/mL
- concentration at 5 h ([1]; KM, mouse, plasma, multiple PO 30 mg/kg, times 4, 5 h): 268 ng/mL and 496 nM
- concentration at 8 h ([1]; KM, mouse, plasma, multiple PO 30 mg/kg, times 4, 8 h): 243 ng/mL and 450 nM
- concentration at 24 h ([1]; KM, mouse, plasma, multiple PO 30 mg/kg, times 4, 24 h): 63.7 ng/mL and 118 nM
- AUC(0-t) ([1]; KM, mouse, plasma, multiple PO 30 mg/kg, times 4, mean of animals): 4760 ng·h/mL
- CL/F ([1]; KM, mouse, plasma, multiple PO 30 mg/kg, times 4, mean of animals, read-out: CLz/F (converted)): 95.4 mL/min/kg
- MRT last ([1]; KM, mouse, plasma, multiple PO 30 mg/kg, times 4, mean of animals, read-out: MRT(0-t)): 7.85 h
- MRT inf ([1]; KM, mouse, plasma, multiple PO 30 mg/kg, times 4, mean of animals, read-out: MRT(0-∞)): 11.7 h
- Vd/F ([1]; KM, mouse, plasma, multiple PO 30 mg/kg, times 4, mean of animals, read-out: Vz/F): 67.5 L/kg
- k el ([1]; KM, mouse, plasma, multiple PO 30 mg/kg, times 4, mean of animals, read-out: λz (converted)): 2.89e-05 s⁻¹
- AUMC(0-t) [1, 2]: 36514.994 h*h*μg
- AUMC(0-∞) [1, 2]: 62413.77 h*h*μg
- C_last [1, 2]: 46.151 µg
- R_AUC(t/∞) [1, 2]: 87.55%
- VRT(0-t) [1, 2]: 41.471 h^2
- VRT(0-∞) [1, 2]: 162.525 h^2
- T1/2 (Mouse, P.O.) ([1]; multiple daily dosing 4 × 30 mg/kg PO, 30 mg/kg): 8.07 h
- BCG pVV16-mmpL3 MIC (BCG pVV16-mmpL3): 40 µM
